71 compounds from PubChem BioAssay AID179 (DTP/NCI, 2004) can be followed below.

What is called EC50 is the midpoint of the concentration-response curve. For orientation: IC50 means the midpoint of a concentration-inhibition curve. Low readings indicate greater potency, high ones weaker potency.

In this assay the test system is CEM cells HIV-1 protection, formazan growth assay. Briefly: NCI AIDS Antiviral Assay. Conditions: for IC50: measured here: growth of uninfected CEM cells. In outline: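 Human CEM cells, uninfected and HIV-1-infected, exposed to five drug concentrations; growth measured by soluble formazan assay and scored as percent protection from infection, with protecting compounds retested.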

Calls of active or inactive are those of the source.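 Rule for the calls: active = compounds giving half or more protection of infected cells from virus-caused growth loss, again on retest; inactive = the rest.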 Where a SMILES comes first, the peptide text is derived from it.

Take `CC(=O)C(C)C(=O)N1C(=O)N(C)C2(C)N(C)C(=O)NC12C` (stereo not drawn): the EC50 was above 200 µM and the IC50 is above 200 µM. Regarding `O=c1[nH]cnc2c1ncn2C1CCC(CO)O1` (stereo not drawn), the EC50 is 6.03 µM and the IC50 was 50.1 µM.

Consider `CC(=O)OC1CN2CC[C@H](O)C2C(O)[C@@H]1O` (stereo partly drawn), for which the EC50 is 41.7 µM and the IC50 is 1070 µM. `Cc1c([N+](=O)[O-])ccc2c(NCCCN(C)C)ccnc12`: the EC50 is above 200 µM and the IC50 came out at 19.1 µM. For `O=C(CNc1ccccc1C(=O)O)Nn1cnc2ccc(S(=O)(=O)Nc3ccccc3C(=O)O)cc2c1=O` the same measures were above 200 µM and above 200 µM. For `O=C(O)c1ccc(CS(=O)(=O)c2ccccc2)c([N+](=O)[O-])c1` the same measures were above 776 µM and 575 µM. Regarding `NC(=N\N=C\C(O)C(O)C(O)C(O)C(=O)O)/C(N)=N/N=C/C(O)C(O)C(O)C(O)C(=O)O` (stereo not drawn), the result was inactive. The same measure, in the same setting: next, `Cc1cc(Cl)ccc1N=C1NC(=O)C(CC(=O)Nc2cccc(Cl)c2)S1` (stereo not drawn): “inactive”. On to `O/N=C1/C(=C/c2ccccc2)CCCC1C(NO)c1ccccc1` (stereo not drawn), for which the EC50 was above 81.3 µM and the IC50 was above 81.3 µM. With `CC1=C2[C@@H](c3ccccc3)C3C=CC2(C=C3C(F)(F)F)N(C(=O)NC2CCCCC2)C1=O` (stereo partly drawn), the EC50 is above 16.2 µM and the IC50 is above 16.2 µM. With `C#CCN(N=O)C(=O)ON1C(=O)CCC1=O`, the EC50 was above 1120 µM and the IC50 was determined as 537 µM. With `O/N=C(/Cc1ccccc1)CC(O)(C(F)(F)F)C(F)(F)F`, the EC50 is above 200 µM and the IC50 came out at 70.8 µM. Regarding `CC(C)(C)OC(=O)NC(Cc1ccc(OC(C)(C)C)cc1)C(=O)N[C@H]1CC[C@H](C(=O)O)C1` (stereo partly drawn), the outcome was inactive.

With `CN1CCN=C1c1ccc(NC(=O)Nc2ccc(NC(=O)Nc3ccc(C4=NCCN4C)cc3)cc2)cc1`, the EC50 is above 200 µM and the IC50 is 38.9 µM. For `CC(C)/C(Cl)=N\OC(=O)Nc1ccc(C#N)cc1` the same measures were above 200 µM and 4.27 µM. Consider `NC(=O)c1nnsc1NN=O`, for which the EC50 was above 200 µM and the IC50 is above 200 µM. In the case of `Nc1c(C(=O)Nc2ccccc2)[n+]([O-])c2ccccc2[n+]1[O-]`, the outcome was inactive.

As to `N#CC12CNCC1CN=N2` (stereo not drawn), the EC50 is above 200 µM and the IC50 is above 200 µM. As for `Cc1cc(=O)oc2c(C)c3oc(CBr)cc3cc12`, the EC50 was above 200 µM and the IC50 is 0.447 µM. Take `CCC1CC2CN3CCc4c([nH]c5ccccc45)C(C(=O)OC)(C2)C13` (stereo not drawn): the outcome was inactive.

Regarding `CC(=O)[O-].Cc1ccnc(NS(=O)(=O)c2ccc(N=Cc3ccccc3[O-])cc2)n1.Cc1ccnc(NS(=O)(=O)c2ccc(N=Cc3ccccc3[O-])cc2)n1.[Co+2].[H+]`, the EC50 was above 200 µM and the IC50 came to 10.5 µM. Turning to `C[C@H]1CC(=O)C2=CCCC3(SCCCS3)[C@@H]2[C@H]1CO`, the result was inactive.

`CC[CH2][Pb]([CH2]CC)([CH2]CC)[NH]S(=O)(=O)c1ccc(C)cc1`: the EC50 was above 2 µM and the IC50 was determined as 0.166 µM. For `CCCc1cc(=O)oc2c3c(cc(OCC)c12)O[C@H](C)[C@@H](C)C3=O` the same measures were above 200 µM and 8.32 µM.

With `Cc1cs/c(=N\C(P(=O)(O)O)P(=O)(O)O)n1C`, the EC50 was above 100 µM and the IC50 was above 100 µM. For the compound `CC(C)CC(N)C(=O)NC(CC(=O)O)C(=O)NC(CCCCN)C(=O)NC(C)C(=O)NC(CO)C(=O)NC(Cc1ccc(O)cc1)C(=O)NC(CO)C(=O)NC(C(=O)NC(CC(N)=O)C(=O)NC(Cc1cnc[nH]1)C(=O)NC(CC(C)C)C(N)=O)C(C)O` (stereo not drawn) (H-LDKASYSTNHL-NH2; configuration not given here), the EC50 is above 50.1 µM and the IC50 was above 50.1 µM. In the case of `Nc1ncnc2c1nnn2C1C=CC(COS(N)(=O)=O)C1` (stereo not drawn), the EC50 was above 200 µM and the IC50 worked out at 43.7 µM. Turning to `CCCCCCCCCC/C=C/CC(=O)SCCNC(=O)CCNC(=O)[C@@H](O)C(C)(C)COP(=O)(O)OP(=O)(O)OCC1OC(n2cnc3c(N)ncnc32)C(O)C1OP(=O)(O)O` (stereo partly drawn), the result was inactive. In the case of `COc1cc(C)c2c(c1C=O)Oc1c(c(C)c(O)c3c1C(O)OC3=O)OC2=O` (stereo not drawn), the EC50 was above 93.3 µM and the IC50 was 53.7 µM. The matching figures for `CC(=O)Nc1ccc(S(=O)(=O)N/N=C/c2ccc(C)cc2)cc1`: above 398 µM and above 398 µM.

As to `NC(=O)c1cn(Cc2ccccc2)c(=O)n1Cc1ccccc1`, the EC50 is above 117 µM and the IC50 was above 117 µM. `COc1ccccc1N1C(=O)/C(=C\c2cccc(Oc3ccccc3)c2)S(=O)(=O)C1c1ccccc1` (stereo not drawn): the EC50 was above 200 µM and the IC50 was 36.3 µM. As for `O=C(O)c1cc(=O)c2c([nH]c3ccccc32)s1`, the result was inactive. On to `CC1(C)OCC2OC3([C@@H]4OC(C)(C)O[C@H]4CO)OC(C)(C)OC3C2O1` (stereo partly drawn), for which the EC50 was above 200 µM and the IC50 was above 200 µM. Consider `CC1=NN(C(=O)CC(=O)Nc2ccc(Cl)cc2)C(=O)C1N=Nc1ccc(C(=O)O)cc1` (stereo not drawn), for which the EC50 was above 200 µM and the IC50 is 87.1 µM. For `Cc1cc(=O)oc2c1cc1ccc3cccc4ccc2c1c34`, the outcome was inactive. For the compound `NC1=NC(=O)[C@H](CSCc2ccccc2)N1C(=O)OCc1ccccc1`, the EC50 was above 200 µM and the IC50 was above 200 µM. Consider `CCN(CC)C(=O)O/N=C(/C)c1ccccc1`, for which the EC50 is above 200 µM and the half-inhibitory concentration (IC50) is above 200 µM.

On to `COc1ccc(/C(C)=N/Nc2ccc([N+](=O)[O-])cc2[N+](=O)[O-])cc1`, for which the result was inactive. Take `O=c1c2cc3c(cc2c2cccc4c2n1CCC4)OCO3`: the outcome was inactive. For `COc1cc(C2c3cc4c(cc3OC3(OC)COC(=O)C23)OCO4)cc(OC)c1OC` (stereo not drawn), the EC50 is above 2 µM and the IC50 was 0.24 µM. For `CC1CNc2cccc3[nH]c(=S)n(c23)C1` (stereo not drawn) the same measures were above 200 µM and above 200 µM. For `O=C(N=C1SCCN1C(=O)C(C(F)(F)F)C(F)(F)F)C(C(F)(F)F)C(F)(F)F` the same measures were above 200 µM and above 200 µM. Consider `CC(C)C[P+](c1ccccc1)(c1ccccc1)c1ccccc1`, for which the EC50 is above 20 µM and the IC50 was 2.19 µM. As to `CCC1c2c(cc(=O)[nH]c2O)C(=O)N1Cc1ccccc1` (stereo not drawn), the EC50 is above 398 µM and the IC50 is above 398 µM. `N#CC(/C(=N/NC(N)=S)C(=O)Nc1cccc(Cl)c1)c1ccccc1` (stereo not drawn): the EC50 is above 19.5 µM and the IC50 worked out at 10.5 µM. The matching figures for `O=C(O)c1cscc1-c1cccc2ccccc12`: above 200 µM and 158 µM.

Turning to `Cc1ccc(S(=O)(=O)Oc2nc3ccccc3nc2OS(=O)(=O)c2ccc(C)cc2)cc1`, the EC50 is above 200 µM and the IC50 turned out to be 38.9 µM. For the compound `COC(=O)CCn1c(N)nc2c1c(=O)n(C)c(=O)n2C`, the EC50 was above 468 µM and the IC50 is above 468 µM. With `CC1(C)CC(=O)c2c(nc3c(ccc4ccccc43)c2-c2ccc(NC(=O)CCCC(=O)Nc3ccc(-c4c5c(nc6c4ccc4ccccc46)CC(C)(C)CC5=O)cc3)cc2)C1`, the EC50 is above 50.1 µM and the IC50 was above 50.1 µM.

For `CC(=O)ON1CCC(n2cc(C)c(=O)[nH]c2=O)C1` (stereo not drawn), the EC50 is above 200 µM and the IC50 was above 200 µM. In the case of `O=c1c(-c2ccccc2)nc2ccccc2n1CC1CCCN2CCCC[C@H]12` (stereo partly drawn), the EC50 was above 200 µM and the IC50 was 39.8 µM. For `CN1C(CCl)Nc2cc(Cl)c(S(N)(=O)=O)cc2S1(=O)=O` (stereo not drawn) the same measures were above 363 µM and 64.6 µM. The matching figures for `COc1ccc(/C=C(\C#N)c2ccccn2)cc1OC`: above 200 µM and 50.1 µM. Regarding `CN(C)c1ccc(/C=c2\sc3nnc(Cc4ccccc4)n3c2=O)cc1`, the EC50 was above 3.98 µM and the IC50 was above 3.98 µM. As for `Cc1ccc2c(c1)sc1n[nH]c(=S)n12`, the EC50 is above 117 µM and the IC50 is above 117 µM. For `CCCCCCCCCCCCNC(=S)OC`, the result was inactive. Same read-out and setting: next, `COc1ccc(C2=Nc3c(nc(OC)[nH]c3=O)NC(c3ccccc3)C2)cc1` (stereo not drawn): “inactive”. For the compound `CCOc1ccc(NC(=O)CC2SC(=Nc3ccc(C)cc3C)NC2=O)cc1` (stereo not drawn), the EC50 is above 66.1 µM and the IC50 is above 66.1 µM. For the compound `CSC1=Nc2cc3c(cc2C(=O)N2CC(OC(C)=O)CC12)OCO3` (stereo not drawn), the EC50 is above 200 µM and the IC50 was above 200 µM. With `COc1ccc(N2C(=O)C3c4[nH]c5ccc(F)cc5c4C4CCC(C(C)(C)C)CC4C3C2=O)cc1` (stereo not drawn), the EC50 is above 200 µM and the IC50 was 22.4 µM.

Consider `CC(=O)OCc1c(O)c2c([nH]c1=O)CCc1ccccc1-2`, for which the EC50 is above 25.1 µM and the IC50 was above 25.1 µM. `C(#CC1(Nc2ccccc2)CCN(Cc2ccccc2)CC1)C1(Nc2ccccc2)CCN(Cc2ccccc2)CC1`: the EC50 was above 100 µM and the IC50 amounted to 74.1 µM. For `C1CCSCCCCCSCCCCCSCCCCCSCC1` the same measures were above 200 µM and 44.7 µM. For `Nc1ccc2nc(Nc3ccc(F)cc3)cnc2c1` the same measures were above 20.4 µM and above 20.4 µM. For `CCN(CC)C(=C(C(Cl)=C(Cl)Cl)[N+](=O)[O-])N(CC)CC` the same measures were above 200 µM and 117 µM. Consider `CCN(CC)c1ccc(/C=C/c2n(-c3ccccc3)c3ccccc3[n+]2C)cc1`, for which the EC50 was above 2 µM and the IC50 stood at 0.115 µM. For `CCC(=O)[CH-]C(=O)CC.CCC(=O)[CH-]C(=O)CC.[Cu+2]` the same measures were above 200 µM and 24.5 µM. `COc1cc2ccc3c4cc(OC)c(OC)cc4c[n+](C)c3c2cc1O`: the outcome was inactive. For the compound `Oc1cc(Cc2ccccc2)c(Cc2ccccc2)cc1O`, the EC50 is above 200 µM and the IC50 came to 34.7 µM. For `O=c1c2ccccc2nc2[nH]ncn12` the same measures were above 200 µM and 117 µM.
